According to patent publication US4703055A, “Benzamides and therapeutic use thereof” (Societe d'Etudes Scientifiques et Industrielles de …, priority 1985, dated 1987):
Counter-ions that a name gives are not always drawn. Like-named read-outs stand apart in the source and are kept apart here.

What was measured:
[1] = in vivo, sc
[2] = system: stereotyped movements induced by apomorphine; assay: Antagonism of stereotyped movements induced by apomorphine in rats (central antidopaminergic effect); type: in vivo
Description: Another pharmacological study was conducted to determine the central antidopaminergic effects of the compounds of the invention, by evaluating the power of their antagonistic effect in regard to the stereotyped movements induced by apomorphine in two different doses (1.25 mg/kg/IV and 0.5 mg/kg/SC) in rats. The tests were conducted according to conventional procedures.

in vivo [3] = conditions: mouse, male mice, intravenous, as base, read-out: LD50 in mg/kg (base) intravenously
Description: The compounds according to the invention were the subject of a toxicological study to determine the lethal doses (LD50) in male mice, the compounds being administered intravenously. Metoclopramide was employed as a standard. The compounds of […] were tested.
Table (I) sets out the values with respect to said (LD50) tests.

in vivo [4] = conditions: sc
Solubility of crystals = type: physicochemical
[5] = Rattus norvegicus, ip, I.P., read-out: inhibitor effect on stereotypies in regard to apomorphine, Intraperitoneal (I.P)
[6] = Rattus norvegicus, ip, I.P., at 64 mg/kg, read-out: inhibitor effect on stereotypies in regard to apomorphine, Intraperitoneal (I.P)
[7] = I.P., at 64 mg/kg, result in words

CCN1CCN=C1CNC(=O)c1cc(Br)c(N)cc1OC [Example 6, N-[(1-ETHYL 2-IMIDAZOLIN-2-YL)METHYL] 2-METHOXY 4-AMINO 5-BROMOBENZAMIDE]
Cataleptic Activity (Subcutaneous) ([1]; 100 mg/kg): inactive
inhibition in vivo at 32 mg/kg [2, 5]: 20%
Stereotypies in regard to apomorphine, Subcutaneous (S.C.) ([2]; S.C., at 200 mg/kg): inactive

COc1cc(N)c(Cl)cc1C(=O)NCC1=NCCN1Cc1ccccc1 [Example 3, N-[(1-benzyl 2-imidazolin-2-yl)methyl] 2-methoxy 4-amino 5-chlorobenzamide Hydrochloride]
Cataleptic Activity (Subcutaneous) ([1]; 200 mg/kg): inactive
LD50 (in vivo [3]): 47.8 to 48.5 mg/kg
inhibition in vivo at 64 mg/kg [2, 6]: 19%
Stereotypies in regard to apomorphine, Subcutaneous (S.C.) ([2]; S.C., at 200 mg/kg): inactive

C=CCOc1cc(N)c(Cl)cc1C(=O)NCC1=NCCN1CC [Example 5, N-[(1-ETHYL 2-IMIDAZOLIN-2-YL)METHYL] 2-ALLYLOXY 4-AMINO 5-CHLOROBENZAMIDE]
Cataleptic Activity (Subcutaneous) ([1]; 200 mg/kg): inactive
LD50 (in vivo [3]): 25.5 to 26.1 mg/kg
inhibition in vivo at 32 mg/kg [2, 5]: 8%
Stereotypies in regard to apomorphine, Subcutaneous (S.C.) ([2]; S.C., at 200 mg/kg): inactive

CCN1CC(C)(C)N=C1CNC(=O)c1cc(Cl)c(N)cc1OC [Example 11, N-[(1-ETHYL 4-DIMETHYL 2-IMIDAZOLIN-2-YL)METHYL]2-METHOXY 4-AMINO 5-CHLOROBENZAMIDE]
Cataleptic Activity (Subcutaneous) ([1]; 200 mg/kg): inactive
LD50 (in vivo [3]): 30.4 mg/kg
Stereotypies in regard to apomorphine, Intraperitoneal (I.P) [2, 7]: inactive
Stereotypies in regard to apomorphine, Subcutaneous (S.C.) ([2]; S.C., at 200 mg/kg): inactive

COc1cc(N)c(Cl)cc1C(=O)NCC1=NCCN1C [Example 8, N-[(1-METHYL 2-IMIDAZOLIN-2-YL)METHYL]2-METHOXY 4-AMINO 5-CHLOROBENZAMIDE HYDROCHLORIDE]
Cataleptic Activity (Subcutaneous) ([1]; 200 mg/kg): inactive
inhibition in vivo at 64 mg/kg [2, 6]: 8%
Stereotypies in regard to apomorphine, Subcutaneous (S.C.) ([2]; S.C., at 200 mg/kg): inactive

CCN1CCN=C1C(C)NC(=O)c1cc(Cl)c(N)cc1OC (stereo not drawn) [Example 14, N-[1-(ethyl 2-imidazolin-2-yl)ethyl]2-methoxy 4-amino 5-chlorobenzamide]
Cataleptic Activity (Subcutaneous) ([1]; 80 mg/kg): inactive
LD50 (in vivo [3]): 14.6 mg/kg
Stereotypies in regard to apomorphine, Intraperitoneal (I.P) ([2]; I.P., at 40 mg/kg): inactive
Stereotypies in regard to apomorphine, Subcutaneous (S.C.) ([2]; S.C., at 80 mg/kg): inactive

CCN1CCN=C1CN(C)C(=O)c1cc(Cl)c(N)cc1OC [Example 7, N-METHYL N-[(1-ETHYL 2-IMIDAZOLIN-2-YL)METHYL] 2-METHOXY 4-AMINO 5-CHLOROBENZAMIDE METHANE SULPHONATE]
Cataleptic Activity (Subcutaneous) ([1]; 200 mg/kg): inactive
LD50 (in vivo [3]): 23.4 to 24.4 mg/kg
Stereotypies in regard to apomorphine, Intraperitoneal (I.P) [2, 7]: inactive
Stereotypies in regard to apomorphine, Subcutaneous (S.C.) ([2]; S.C., at 200 mg/kg): inactive

COc1cc(N)c(Cl)cc1C(=O)NCC1=NCCN1CC1=CCCCC1 [Example 13, N-[1-CYCLOHEXEN-1-YL-METHYL)2-(IMIDAZOLIN-2-YL)METHYL]2-METHOXY 4-AMINO 5-CHLOROBENZAMIDE]
Cataleptic Activity (Subcutaneous) ([1]; 200 mg/kg): inactive
LD50 (in vivo [3]): 61.6 mg/kg
inhibition in vivo at 64 mg/kg [2, 6]: 18%
Stereotypies in regard to apomorphine, Subcutaneous (S.C.) ([2]; S.C., at 200 mg/kg): inactive

COc1cc(N)c(Cl)cc1C(=O)NCC1=NCCN1CC1CC1 [Example 4, N-[(1-CYCLOPROPYLMETHYL 2-IMIDAZOLIN-2-YL)METHYL] 2-METHOXY 4-AMINO 5-CHLOROBENZAMIDE]
Cataleptic Activity (Subcutaneous) ([1]; 200 mg/kg): inactive
inhibition in vivo at 32 mg/kg [2, 5]: 26%
Stereotypies in regard to apomorphine, Subcutaneous (S.C.) ([2]; S.C., at 100 mg/kg): inactive

COc1cc(N)c(Cl)cc1C(=O)NCC1=NCCN1 [Example 10, N-[(2-IMIDAZOLIN-2-YL)METHYL] 2-METHOXY 4-AMINO 5-CHLOROBENZAMIDE NITRATE]
Cataleptic Activity (Subcutaneous) ([1]; 200 mg/kg): inactive
LD50 (in vivo [3]): 38.4 to 41.9 mg/kg
inhibition in vivo at 64 mg/kg [2, 6]: 4%
Stereotypies in regard to apomorphine, Subcutaneous (S.C.) ([2]; S.C., at 100 mg/kg): inactive

CCN(CC)CCNC(=O)c1cc(Cl)c(N)cc1OC [METOCLOPRAMIDE, Metoclopramide, reference compound]
TD50 (in vivo [4]): 30 to 38 mg/kg
LD50 (in vivo [3]): 37.9 mg/kg
ED50 ([2]; Rattus norvegicus, ip, I.P., read-out: ID50, stereotypies in regard to apomorphine, Intraperitoneal (I.P)): 2 to 2.6 mg/kg
ED50 ([2]; Rattus norvegicus, sc, S.C., read-out: ID50, stereotypies in regard to apomorphine, Subcutaneous (S.C.)): 15 to 15.2 mg/kg
antagonism of apomorphine stereotypies (in words) ([2]; same conditions): marked stereotypy inhibitor capacity

CCN1CC(C)N=C1CNC(=O)c1cc(Cl)c(N)cc1OC (stereo not drawn) [Example 9, N-[(1-ETHYL 4-METHYL 2-IMIDAZOLIN-2-YL)METHYL] 2-METHOXY 4-AMINO 5-CHLOROBENZAMIDE]
Cataleptic Activity (Subcutaneous) ([1]; 200 mg/kg): inactive
inhibition in vivo at 64 mg/kg [2, 6]: 5%
Stereotypies in regard to apomorphine, Subcutaneous (S.C.) ([2]; S.C., at 100 mg/kg): inactive

C=CCN1CCN=C1CNC(=O)c1cc(Cl)c(N)cc1OC [Example 2, N-[(1-ALLYL 2-IMIDAZOLIN-2-YL)METHYL] 2-METHOXY 4-AMINO 5-CHLOROBENZAMIDE]
Cataleptic Activity (Subcutaneous) ([1]; 200 mg/kg): inactive
LD50 (in vivo [3]): 31.8 mg/kg

CCN1CCN=C1CNC(=O)c1cc(Cl)c(N)cc1OC [Example 1, N-[(1-ETHYL 2-IMIDAZOLIN-2-YL)METHYL] 2-METHOXY 4-AMINO 5-CHLOROBENZAMIDE]
Cataleptic Activity (Subcutaneous) ([1]; 200 mg/kg): inactive
LD50 (in vivo [3]): 27.1 to 27.2 mg/kg
solubility in chloroform (Solubility of crystals; chloroform): highly soluble
solubility in dilute acetic acid (Solubility of crystals; dilute acetic acid): soluble
Stereotypies in regard to apomorphine, Intraperitoneal (I.P) ([2]; I.P., at 50 mg/kg): inactive
Stereotypies in regard to apomorphine, Subcutaneous (S.C.) ([2]; S.C., at 200 mg/kg): inactive

CCN1CCN=C1CNC(=O)c1cc(Cl)c(N)cc1O [Example 12, N-[(1-ETHYL 2-IMIDAZOLIN-2-YL)METHYL]2-HYDROXY 4-AMINO 5-CHLOROBENZAMIDE HYDROCHLORIDE]
Cataleptic Activity (Subcutaneous) ([1]; 200 mg/kg): inactive
LD50 (in vivo [3]): 59.3 mg/kg
inhibition in vivo at 54 mg/kg ([2]; Rattus norvegicus, ip, I.P., at 54 mg/kg, read-out: inhibitor effect on stereotypies in regard to apomorphine, Intraperitoneal (I.P)): 2%
Stereotypies in regard to apomorphine, Subcutaneous (S.C.) ([2]; S.C., at 200 mg/kg): inactive
